# Reference: ChEMBL document CHEMBL2021890, “A new class of prolylcarboxypeptidase inhibitors, part 1: discovery and evaluation” (Bioorg Med Chem Lett, 2012)
# Columns and labels:
# [1] = biological target: T1, Lysosomal Pro-X carboxypeptidase (Mus musculus, UniProt Q7TMR0); test: Inhibition of mouse PrCP
# T1 sequence (Q7TMR0 whole entry): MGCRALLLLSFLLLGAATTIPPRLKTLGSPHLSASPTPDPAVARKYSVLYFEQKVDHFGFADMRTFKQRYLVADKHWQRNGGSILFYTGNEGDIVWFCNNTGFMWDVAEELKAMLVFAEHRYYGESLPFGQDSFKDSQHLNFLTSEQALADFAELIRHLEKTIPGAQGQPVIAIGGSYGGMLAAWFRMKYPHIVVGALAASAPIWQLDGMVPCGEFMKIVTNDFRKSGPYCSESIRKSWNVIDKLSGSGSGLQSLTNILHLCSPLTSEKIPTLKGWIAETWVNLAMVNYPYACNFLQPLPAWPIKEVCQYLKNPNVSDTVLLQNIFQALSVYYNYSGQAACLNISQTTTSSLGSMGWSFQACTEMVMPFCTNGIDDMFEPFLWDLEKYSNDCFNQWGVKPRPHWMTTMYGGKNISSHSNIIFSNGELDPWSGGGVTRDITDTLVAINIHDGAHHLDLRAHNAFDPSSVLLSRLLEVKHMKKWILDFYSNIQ
# [2] = Metabolic stability in human liver microsomes after 30 mins by LC/MS analysis; type: ADME, Microsome; conditions: read-out: Stability
# [3] = Metabolic stability in mouse liver microsomes after 30 mins by LC/MS analysis; type: ADME, Microsome; conditions: read-out: Stability
# Mus musculus [4] = test: Dose normalized AUC in mouse at 1 mg/kg, po; type: ADME, organism-based; set-up: dose 1 mg/kg, route oral; conditions: in vivo
# [5] = Volume of distribution in mouse at 0.5 mg/kg, iv and 1 mg/kg, po; type: ADME, organism-based; conditions: in vivo
# [6] = Clearance in mouse at 0.5 mg/kg, iv and 1 mg/kg, po; type: ADME, organism-based; conditions: in vivo
# [7] = Half life in mouse at 0.5 mg/kg, iv and 1 mg/kg, po; type: ADME, organism-based; conditions: in vivo
# [8] = Oral bioavailability in mouse at 1 mg/kg; type: ADME, organism-based; conditions: in vivo
# [9] = Plasma protein binding in 10% human plasma assessed as percentage unbound; type: ADME, cell-free
# [10] = Plasma protein binding in 10% mouse plasma assessed as percentage unbound; type: ADME, cell-free
# Mus musculus [11] = test: Ex-vivo inhibition of PrCP in heat inactivated 25% plasma of po dosed mouse by FRET analysis; type: functional, organism-based
# Mus musculus [12] = test: Ex-vivo inhibition of PrCP in heat inactivated 100% plasma of po dosed mouse by FRET analysis; type: functional, organism-based
# Mus musculus [13] = test: Ex-vivo inhibition of po dosed mouse PrCP in the absence of plasma by FRET analysis; type: functional, organism-based
SMILES,IC50 [1] [nM],remaining at 0.5 h [2] [%],remaining at 0.5 h [3] [%],AUC/dose (Mus musculus [4]) [µM·kg·h/mg],Vd [5] [L/kg],clearance [6] [mL/min/kg],half-life [7] [h],bioavailability [8] [%],fraction unbound [9],fraction unbound [10],Ki (Mus musculus [11]) [nM],Ki (Mus musculus [12]) [nM],Ki (Mus musculus [13]) [nM]
Cc1cc(C2CCN(C(=O)[C@@H]3CN(C(C)(C)C)C[C@H]3c3ccc(F)cc3F)CC2)n(-c2ccc(F)cc2)n1,30,,,,,,,,,,,,
CC(C)(C)N1C[C@@H](C(=O)N2CCC(c3nnnn3-c3ccc(Cl)cc3)CC2)[C@H](c2ccc(F)cc2F)C1,44,5,10,0.01,17,163,1.8,6.4,0.32,0.42,,,
Cc1cc(C2CCN(C(=O)[C@@H]3CN(C(C)(C)C)C[C@H]3c3ccc(F)cc3F)CC2)n(-c2ccc(Cl)c(F)c2)n1,4.8,,,,,,,,,,8.9,25.1,3.6
Cc1cc(C2CCN(C(=O)[C@@H]3CN(C(C)(C)C)C[C@H]3c3ccc(F)cc3F)CC2)n(-c2cc(Cl)ccc2F)n1,1.4,34,37,,,,,,0.14,0.09,1.6,2.8,1.2
Cc1nc(C2CCN(C(=O)[C@@H]3CNC[C@H]3c3ccc(F)cc3F)CC2)n(-c2ccc(Cl)cc2)n1,194,53,82,,,,,,0.12,0.07,,,
Cc1nc(C2CCN(C(=O)[C@H]3CN(C(C)(C)C)C[C@@H]3c3ccc(F)cc3F)CC2)n(-c2ccc(Cl)c(C)c2)n1,11,29,6,0.03,20,127,2.1,13,0.1,0.19,6,15,3
Cc1cc(C2CCN(C(=O)[C@@H]3CNC[C@H]3c3ccc(F)cc3F)CC2)n(-c2cc(Cl)ccc2Cl)n1,4.4,,,0.04,19,173,1.4,23,0.12,0.05,8.9,23,4.2
Cc1nc(C2CCN(C(=O)[C@@H]3CNC[C@H]3c3ccc(F)cc3F)CC2)n(-c2ccc(F)c(Cl)c2)n1,32,49,57,,,,,,,,,,
Cc1cc(C2CCN(C(=O)[C@@H]3CN(C(C)(C)C)C[C@H]3c3ccc(F)cc3F)CC2)n(-c2cc(F)ccc2Cl)n1,8.6,,,,,,,,,,,,
Cc1cc(C2CCN(C(=O)[C@@H]3CNC[C@H]3c3ccc(F)cc3F)CC2)n(-c2ccc(F)c(Cl)c2)n1,8,,,,,,,,,,19.9,54.5,8.3
Cc1nc(C2CCN(C(=O)[C@@H]3CNC[C@H]3c3ccc(F)cc3F)CC2)n(-c2ccc(Cl)c(Cl)c2)n1,49,59,58,,,,,,,,,,
Cc1cc(C2CCN(C(=O)[C@@H]3CN(C(C)(C)C)C[C@H]3c3ccc(F)cc3F)CC2)n(-c2ccc(F)cc2F)n1,12,,,0.26,14,63,2.5,54,,,7.5,14.5,5.2
Cc1cc(C2CCN(C(=O)[C@@H]3CN(C(C)(C)C)C[C@H]3c3ccc(F)cc3F)CC2)n(-c2ccc(Cl)cc2)n1,3.5,28,37,0.24,14,41,3.9,29,0.11,0.17,,,
Cc1nc(C2CCN(C(=O)[C@@H]3CNC[C@H]3c3ccc(F)cc3F)CC2)n(-c2cc(Cl)ccc2Cl)n1,30,58,56,,,,,,,,,,
Cc1cc(C2CCN(C(=O)[C@@H]3CNC[C@H]3c3ccc(F)cc3F)CC2)n(-c2ccc(Cl)c(Cl)c2)n1,15,,,,,,,,,,55.7,164,19.6
Cc1cc(C2CCN(C(=O)[C@@H]3CN(C(C)(C)C)C[C@H]3c3ccc(F)cc3F)CC2)n(-c2ccc(Cl)cc2C)n1,2.3,,,0.17,17,65,3.1,37,,,,,
Cc1cc(C2CCN(C(=O)[C@@H]3CN(C(C)(C)C)C[C@H]3c3ccc(F)cc3F)CC2)n(-c2ccc(C)c(Cl)c2)n1,1.1,< 1,1,0.01,24,165,2.1,5.5,0.05,0.04,,,
Cc1nc(C2CCN(C(=O)[C@@H]3CN(C(C)(C)C)C[C@H]3c3ccc(F)cc3F)CC2)n(-c2ccc(F)c(F)c2)n1,34,57,47,,,,,,0.7,0.54,,,
Cc1cc(C2CCN(C(=O)[C@@H]3CN(C(C)(C)C)C[C@H]3c3ccc(F)cc3F)CC2)n(-c2cccc(Cl)c2)n1,13,,,,,,,,,,,,
Cc1cc(C2CCN(C(=O)[C@@H]3CN(C(C)(C)C)C[C@H]3c3ccc(F)cc3F)CC2)n(-c2ccc(Cl)cc2F)n1,2,,,0.25,16,51,3.6,43,0.17,0.21,2.5,5.5,1.5
Cc1cc(C2CCN(C(=O)[C@@H]3CN(C(C)(C)C)C[C@H]3c3ccc(F)cc3F)CC2)n(-c2ccc(Cl)c(C)c2)n1,2.9,1,18,0.1,20,80,3.1,28,0.04,0.06,,,
Cc1nc(C2CCN(C(=O)[C@@H]3CN(C(C)(C)C)C[C@H]3c3ccc(F)cc3F)CC2)n(-c2ccc(Cl)cc2)n1,26,35,46,0.16,14,96,1.9,48,0.25,0.49,,,
Cc1cc(-n2nc(C3CCN(C(=O)[C@@H]4CN(C(C)(C)C)C[C@H]4c4ccc(F)cc4F)CC3)nc2C)ccc1Cl,495,6,36,0.05,14,111,1.7,18,0.11,0.07,,,
